Source: patent US20060281806A1, “Treatment and inhibition of disease conditions using flexible heteroarotinoids” (priority 2005, published 2006)

What was measured:
[1] = test system: Raldh2 −/− embryos; assay: Rescue of Raldh2 −/− embryos and teratogenesis; type: in vivo, mouse; details: for No. of −/− rescued / No. of −/− unrescued / Teratogenesis (no. of embryos): E10.25 embryos
Description: Dosages varied from 0.025 to 25 mg/kg.

[2] = test system: C6 glioma cells injected into the brains of rats; assay: Rat glioma (brain cancer) model, MRI; type: in vivo; details: Monday, Wednesday and Friday
Description: FIG. 9. SHetA2 inhibition of Angiogenesis. C6 glioma cells were injected into the brains of 2 rats. One week later, one rat was gavaged with 60 mg/kg/day SHetA2 on each Monday, Wednesday and Friday. Blood vessels were imaged by MRI.
FIG. 10. […] C6 glioma cells were injected into the brains of 2 rats. One week later, one rat was gavaged with 60 mg/kg/day SHetA2 on each Monday, Wednesday and Friday. The blood flow was measured by MRI imaging.
FIG. 11. SHetA2 inhibition of glioma tumor growth. C6 glioma cells were injected into the brains of 2 rats. One week later, one rat was gavaged with 60 mg/kg/day SHetA2 on each Monday, Wednesday and Friday. The tumor size was measured by MRI imaging.
In this in vivo model, glioma cells are injected into the brains of rats and the growth of the tumor and development of blood vessels in the tumor is measured by magnetic resonance imaging (MRI).

[3] = dose 2.5 mg/kg oral to pregnant mice
[4] = dose 10 mg/kg oral to pregnant mice
[5] = dose 25 mg/kg oral to pregnant mice
[6] = oral 60 mg/kg/day, versus untreated control

## CC1(C)CC(C)(C)c2cc(NC(=S)Nc3ccc([N+](=O)[O-])cc3)ccc2S1 [SHetA2]
[1]; 2.5 mg/kg to pregnant mothers
  rescue of Raldh2 −/− embryos (phenotype): no rescue
[1]; 10 or 25 mg/kg to pregnant mothers
  rescue of Raldh2 −/− embryos (phenotype): no rescue
[1]; any dosage (2.5, 10, 25 mg/kg)
  teratogenesis in litters: no teratogenesis was observed
[1]; [3]
  No. of −/− rescued: 0
  No. of −/− unrescued: 1
  Teratogenesis (no. of embryos): 0
[1]; [4]
  No. of −/− rescued: 0
  No. of −/− unrescued: 5
  Teratogenesis (no. of embryos): 0
[1]; [5]
  No. of −/− rescued: 0
  No. of −/− unrescued: 1
  Teratogenesis (no. of embryos): 0
[2]; gavage 60 mg/kg/day
  blood flow (MRI): inhibition of blood flow
[2]; [6]
  angiogenesis of glioma tumors (MRI): inhibited
  growth of glioma tumors (MRI): inhibited
